Test results taken from patent publication US20080275105A1, “Selective Muscle Relaxant and Pharmaceutical Compositions” (UNIVERSIDADE FEDERAL DO RIO DE JANEIROUFRJ, priority 2004, published 2008).

How the values were obtained:
[1] = system: rat papillary muscle; assay: Isometric tension (electrically stimulated twitches) in papillary muscle; format: cell-based; conditions: 10 to 100 μM; not significant
Description: (§1) Once the experiments have been carried out, the findings were subject to statistical analyses being expressed in average ±SEM as a percentage of the control value, and graphs were drawn up using the Sigma Plot 5.0 program to represent the data obtained. For the statistical analysis of the effects on the different muscle tissues, the difference was assessed among the concentrations of the same derivative, using the “t” Student test. In order to ascertain the difference among the derivatives, the one-way ANOVA test was used. The differences were considered as significant for p<0.05. The Cl50 was expressed as an average ±SEM of the values obtained for each experiment through non-linear regression based on the y=yo+ae^−bx equation.
(§2) After anesthesia with ethyl ether, male Wistar rats weighing between 240-280 grams were sacrificed through cervical dislocation. The heart was removed rapidly and the papillary muscle and the ventricular bundles were dissected in Tyrode's solution, whose composition is given in Table 2 below, at room temperature. The muscles were placed in vertical chambers with a capacity of 10 mL and fixed at their extremities: the lower portion to a hook located in the stimulation electrode fixation rod and the upper portion connected to a power transducer (Grass FT03) for recording the muscle twitches.
(§3) The muscles were stimulated electrically with supra-maximum voltage (50-60 V) through a stimulator (Grass S88) at a frequency of 1.0 Hz. The signals captured by the transducer were amplified (Cyberamp 380, Axon Instruments) and the isometric tension was digitized (Digidata 1322A, Axon Instruments) and stored on a computer. The screening and analysis of the experiment was handled through the Axoscope 8.0 program (Axon Instruments) (Sudo & cols., 2001). The chamber solution was bubbled continuously with a carbogenic mixture (95% O2/5% CO2) and kept at a temperature of 37° C.
(§4) After the stabilization of the muscle twitches (approximately 30 min) the records were carried out in the absence (control) and presence of rising concentrations (10 to 100 μM) of the different L294 analogs, diluted in DMSO. The records were carried out in pairs (two papillary and two ventricle) thus allowing the control experiments to be carried out in one of the pairs, meaning with rising quantities of DMSO equivalent to those used to dilute the substances. The reversibility of the effect of the substances was investigated at the end of each experiment, noting the recovery of the muscle twitches after bathing the preparation with Tyrode's solution.

[2] = system: left ventricle bundles of a rat heart; assay: Isometric tension in ventricular bundles; format: cell-based
Description: as §1, §2, §3, §4

[3] = system: rat aorta rings with the vascular endothelium preserved; assay: Phenylephrine-induced contracture in aorta rings with preserved endothelium; format: cell-based; conditions: phenylephrine 10 μM; for IC50: Rattus norvegicus, with endothelium, six experiments, read-out: CI50 (μM) Average ± SEM
Description: as §1
(§5) Male Wistar rats weighing between 240-280 grams were sacrificed through dislocation of the cervical column under anesthesia using ethyl ether. The aorta artery was removed and transferred to a Petri dish containing modified Tyrode's solution whose composition is described in Table 3 below, where the vessel was cleaned and the connective tissue was removed. According to the scheduled Experiment Protocol, the vascular endothelium was removed mechanically with the assistance of a polyethylene rod. The artery was divided into rings with a width of 2-3 mm. Two hooks were placed in the wall of the vessel in order to record the tension generated by the muscle in a transversal direction. To do so, one of the hooks was tied to a fixed point in the chamber and the other to a power transducer (FT 03) for recording the isometric tension. The tension generated by the muscle was transformed into a digitized electric signal (Digidata 1322A) and stored in a computer for subsequent analysis using the Axoscope 8.0 program (Axon Instruments, Inc). The chamber was filled with Krebs solution, oxygenated and kept at a temperature of 37° C.
(§6) After stabilizing the preparation, approximately 120 minutes, the Experiment Protocol began. Initially, in order to identify the presence or absence of the vascular endothelium, the preparation was exposed to phenylephrine (10 μM) and when the contracture in response to this substance was stabilized, acetylcholine (10 μM) was added to the nutrient solution. Relaxation of over 80% in response to the acetylcholine indicated the full integrity of the endothelium and relaxation of less than 10% indicated the absence of endothelium. The tissues in which the relaxation intensity fell between >10% and <80% were discarded. In order to investigate the vasodilator effect of the different L294 analogs, they were added to the experiment chambers in rising concentration after the contracture stabilization of the vessel induced by phenylephrine. The tension registered after treatment with each of the L294 analog concentrations was normalized as a function of the amplitude of the contracture triggered by phenylephrine. For the purpose of comparing the potency of some of the L294 analogs, the Cl50 was determined for each experiment using the y=yo+ae^−bx equation and their mean was used for the statistical analysis.

[4] = system: aorta rings with no preserved endothelium; assay: Phenylephrine-induced contracture in aorta rings without endothelium; format: cell-based, rat; conditions: for IC50: Rattus norvegicus, phenylephrine 10 μM, without endothelium, six experiments, read-out: CI50 (MM) Average ± SEM
Description: as §1, §5, §6
The importance of the presence of vascular endothelium in the vasodilatory action of the L294 analogs was assessed in experiments in which these cells were removed mechanically. […] When the findings of the experiments without the endothelium were analyzed as a whole, the absence of the L790 effect was confirmed. […] The maximum relaxation caused by the L787 and L789 analogs was less than 50% of the control, and the other analogs caused relaxation in the following decreasing order of efficacy: L785>L788>L786. Once again, attention is drawn to the marked efficiency of the L785 and L788 analogs.

[5] = system: extensor digitorium longus (EDL) muscle; assay: Electrically induced twitch amplitude in fast-fiber skeletal muscle (EDL); format: cell-based, mice
Description: Male mice weighing 22-28 g were sacrificed through cervical dislocation and the extensor digitorium longus (EDL) and soleus (SOL) muscles were dissected in a Ringer-Krebs solution, whose composition is given in Table 9, at room temperature. The muscles were placed in vertical chambers with a capacity of 10 ml, and were fixed by their ends to the stimulation electrode fixation rod and a power transducer (Grass FT03) for registering muscle twitches. The chamber solution was bubbled continuously with a carbogenic mixture (95% O2/5% CO2) and kept at a temperature of 37° C. The muscles were stimulated electrically through a stimulator (Grass S88) at a frequency of 0.2 Hz, at 37° C. After the stabilization of the muscle twitches (±30 minutes) a control record was taken in the absence of the drug, and subsequently rising concentrations (from 10 μM to 200 μM) of the L294 derivatives were added every ten minutes, diluted in DMSO. […] The signals recorded by the transducer were amplified (Cyberamp) and the isometric tension was digitized (Digidata 1322A) and stored on a computer. The screening and analysis of the experiment was handled through the use of the Axoscope 8.0 program. (Zapata-Sudo, 2003).
A measurement of the electrically-induced twitch amplitude was selected to assist the effects of the L294 analogs on the skeletal muscle inotropism. One muscle consisting of fast fibers (extensor digitorium longus-EDL) and the other of slow fibers (soleus-SOL) taken from mice were selected for this purpose. Differences in the timing of the twitches between the fast and slow muscles are shown at the faster recording speed. […] Washing the preparation with Krebs solution caused a partial reversion of the effects induced by the L786.

| IC50 [3] [µM] | IC50 [4] [µM] | SMILES | maximum alterations to the papillary muscle twitches [1] | muscular response in ventricular bundles ([2]; concentration not given, alterations not greater than 10%) | relaxation of phenylephrine contracture, without endothelium ([4]; 100 μM, result in words) | EDL twitch amplitude 200 μM (% of the control) [5] | EDL twitch amplitude 30 min-Washing (% of the control) ([5]; 30 min after washing) | muscle twitches / contractility in ventricular bundles ([2]; 100 μM) | maximum inhibition levels of phenylephrine contracture, with endothelium [3] [%] | effect on EDL muscle twitches ([5]; 50 μM, result in words) |
| --- | --- | --- | --- | --- | --- | --- | --- | --- | --- | --- |
| 10.2 ± 0.5 | 18.5 ± 3.6 | CN(/N=C/c1cccs1)C(=O)c1ccc2c(c1)OCO2 [L785, 1,3-Benzodioxol-5-carboxylic acid, N-methyl-N′-[1-thiophene-2-yl-meth-(E)-ylidene]-hydrazide] | 86.5±4.0 % of the control | 96.5±3.8 % of the control | relaxation was almost total | 31.6±4.7 % of the control | 36.4 ± 4.5 % of the control |  |  |  |
| 134 ± 31 | 86.2 ± 7.1 | O=C(c1ccc2c(c1)OCO2)N(Cc1ccccc1)/N=C/c1cccs1 [L786, 1,3-Benzodioxol-5-carboxylic acid, N-benzyl-N′-[1-thiophene-2-yl-meth-(E)-ylidene]-hydrazide] |  |  |  | 28.7±9.9 % of the control |  | 79.9±10.6 % of the control | 34.5±7.6 | reduction in the amplitude and an extension in the duration of the muscle twitches |
